The results in this text go back to patent publication US20230002367A1, “BIFUNCTIONAL COMPOUNDS” (Hoffmann-La Roche Inc., priority 2019, published 2023).

Read-outs that look alike come from different tables or passages of the source.

In this test the target is T1, SMARCA2 (Homo sapiens, UniProt P51531).
T1 construct: endogenous in cells
Description: SMARCA2 HiBiT degradation assay (cellular). The format is cell-based. As to conditions: for DC50: read-out: HiBit A549 SMARCA2 IP.

The mark [1] stands for this setting: A549, different HIBIT SMARCA2 clone (footnote a), residual protein remaining.
Where [2] appears, read: different HIBIT SMARCA2 clone (footnote a).
Setting [3] is: A549, Emax = amount of residual protein remaining in the cell following compound treatment.
Setting [4] is: SMARCA2 HiBiT cells, luminescence readout, 11-point titration from 10 μM, 6 hours or 16 hours.

T1 sequence (P51531 whole entry): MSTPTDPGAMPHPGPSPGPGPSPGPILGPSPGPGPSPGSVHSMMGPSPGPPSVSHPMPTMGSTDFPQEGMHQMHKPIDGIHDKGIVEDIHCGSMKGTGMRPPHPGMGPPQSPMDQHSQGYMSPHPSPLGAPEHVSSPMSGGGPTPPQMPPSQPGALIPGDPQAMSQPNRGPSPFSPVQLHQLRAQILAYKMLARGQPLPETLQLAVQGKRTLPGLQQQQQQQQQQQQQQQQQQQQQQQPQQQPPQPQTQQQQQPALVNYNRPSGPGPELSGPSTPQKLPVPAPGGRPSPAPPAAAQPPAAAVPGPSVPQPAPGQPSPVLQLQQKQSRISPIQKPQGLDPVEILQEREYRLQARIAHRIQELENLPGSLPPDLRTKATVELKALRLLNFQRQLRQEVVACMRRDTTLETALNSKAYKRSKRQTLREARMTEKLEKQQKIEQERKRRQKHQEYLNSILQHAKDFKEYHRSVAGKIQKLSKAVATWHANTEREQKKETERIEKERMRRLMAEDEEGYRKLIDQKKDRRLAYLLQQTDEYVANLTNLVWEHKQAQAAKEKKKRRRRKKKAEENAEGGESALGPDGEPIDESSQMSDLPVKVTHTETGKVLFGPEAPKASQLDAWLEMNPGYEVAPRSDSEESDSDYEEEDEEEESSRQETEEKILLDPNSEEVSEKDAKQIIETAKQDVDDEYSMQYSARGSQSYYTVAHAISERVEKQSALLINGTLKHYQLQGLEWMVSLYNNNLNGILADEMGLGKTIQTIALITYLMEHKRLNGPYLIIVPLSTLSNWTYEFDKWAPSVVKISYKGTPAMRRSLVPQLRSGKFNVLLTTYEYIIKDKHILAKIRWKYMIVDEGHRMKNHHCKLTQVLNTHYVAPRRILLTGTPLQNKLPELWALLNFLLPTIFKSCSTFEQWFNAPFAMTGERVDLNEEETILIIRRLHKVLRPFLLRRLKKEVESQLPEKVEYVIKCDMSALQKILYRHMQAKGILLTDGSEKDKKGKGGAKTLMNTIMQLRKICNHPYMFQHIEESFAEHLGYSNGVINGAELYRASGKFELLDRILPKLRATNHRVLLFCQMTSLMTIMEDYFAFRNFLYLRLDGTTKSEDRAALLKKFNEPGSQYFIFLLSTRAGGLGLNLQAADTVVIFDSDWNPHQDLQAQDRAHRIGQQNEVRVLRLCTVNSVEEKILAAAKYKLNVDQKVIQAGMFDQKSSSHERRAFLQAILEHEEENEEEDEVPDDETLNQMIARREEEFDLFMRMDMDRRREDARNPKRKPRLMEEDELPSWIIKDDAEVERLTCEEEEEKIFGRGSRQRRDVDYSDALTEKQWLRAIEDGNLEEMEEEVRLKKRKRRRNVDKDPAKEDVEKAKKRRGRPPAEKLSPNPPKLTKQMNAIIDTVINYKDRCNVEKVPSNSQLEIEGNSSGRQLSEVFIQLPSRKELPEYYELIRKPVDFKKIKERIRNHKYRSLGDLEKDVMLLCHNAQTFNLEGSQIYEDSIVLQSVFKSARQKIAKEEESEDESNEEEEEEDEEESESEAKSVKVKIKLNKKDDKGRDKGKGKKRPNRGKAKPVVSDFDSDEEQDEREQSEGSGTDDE

Consider `Cc1ncsc1-c1ccc(CNC(=O)[C@@H]2C[C@@H](O)CN2C(=O)[C@@H](NC(=O)CCCCCCCCC(=O)N2CCN(c3ccc(N4CCCC(Oc5cc(-c6cc(F)ccc6O)nnc5N)C4)cc3)CC2)C(C)(C)C)cc1` (mixture of isomers) [Example 108, rac-(2S,4R)-4-hydroxy-N-[[4-(4-methylthiazol-5-yl)phenyl]methyl]-1-[rac-(2S)-2-[[10-[4-[4-[3-[3-amino-6-(5-fluoro-2-hydroxy-phenyl)pyridazin-4-yl]oxy-1-piperidyl]phenyl]piperazin-1-yl]-10-oxo-decanoyl]amino]-3,3-dimethyl-butanoyl]pyrrolidine-2-carboxamide], for which, under setting [1], the Emax (in general, the maximal effect, on the per cent scale that the assay sets) came out at 7.9%. Under setting [2], the DC50 turned out to be 68 nM.
For `Cc1ncsc1-c1ccc([C@H](C)NC(=O)[C@@H]2C[C@@H](O)CN2C(=O)[C@@H](NC(=O)CCCCCCCCC(=O)N2CCN(CCOc3cccc(CCOc4cc(-c5ccccc5O)nnc4N)c3)CC2)C(C)(C)C)cc1` [Example 58, (2S,4R)-1-[(2S)-2-[[10-[4-[2-[3-[2-[3-amino-6-(2-hydroxyphenyl)pyridazin-4-yl]oxyethyl]phenoxy]ethyl]piperazin-1-yl]-10-oxo-decanoyl]amino]-3,3-dimethyl-butanoyl]-4-hydroxy-N-[(1S)-1-[4-(4-methylthiazol-5-yl)phenyl]ethyl]pyrrolidine-2-carboxamide], the Emax under setting [3] came to 22%. In addition, the DC50 under setting [4] is 197 nM.
On to `Cc1ncsc1-c1ccc(CNC(=O)[C@@H]2C[C@@H](O)CN2C(=O)[C@@H](NC(=O)CCCCCC(=O)N2CCN(c3ccc(N4CCCC(Oc5cc(-c6cc(F)ccc6O)nnc5N)C4)cc3)CC2)C(C)(C)C)cc1` (mixture of isomers) [Example 109, rac-(2S,4R)-4-hydroxy-N-[[4-(4-methylthiazol-5-yl)phenyl]methyl]-1-[rac-(2S)-2-[[7-[4-[4-[3-[3-amino-6-(5-fluoro-2-hydroxy-phenyl)pyridazin-4-yl]oxy-1-piperidyl]phenyl]piperazin-1-yl]-7-oxo-heptanoyl]amino]-3,3-dimethyl-butanoyl]pyrrolidine-2-carboxamide], for which the Emax under setting [1] worked out at 23%. Moreover, under setting [2], the DC50 is 285 nM.
`Cc1ncsc1-c1ccc(CNC(=O)[C@@H]2C[C@@H](O)CN2C(=O)[C@@H](NC(=O)CCCCCCCCC(=O)N2CCN(c3cc(-c4ccccc4O)nnc3N)CC2)C(C)(C)C)cc1` [Example 1, (2S,4R)-1-[(2S)-2-[[10-[4-[3-amino-6-(2-hydroxyphenyl)pyridazin-4-yl]piperazin-1-yl]-10-oxo-decanoyl]amino]-3,3-dimethyl-butanoyl]-4-hydroxy-N-[[4-(4-methylthiazol-5-yl)phenyl]methyl]pyrrolidine-2-carboxamide] registered an Emax under setting [3] of 52%. Besides, the DC50 under setting [4] was 2780 nM.
Under setting [3], `Cc1ncsc1-c1ccc([C@H](C)NC(=O)[C@@H]2C[C@@H](O)CN2C(=O)[C@@H](NC(=O)CCCCCC(=O)N2CCN(CCOc3cccc(N4CCCC(Oc5cc(-c6ccccc6O)nnc5N)C4)c3)CC2)C(C)(C)C)cc1` (mixture of isomers) [Example 70, rac-(2S,4R)-4-hydroxy-1-[rac-(2S)-2-[[7-[4-[2-[3-[3-[3-amino-6-(2-hydroxyphenyl)pyridazin-4-yl]oxy-1-piperidyl]phenoxy]ethyl]piperazin-1-yl]-7-oxo-heptanoyl]amino]-3,3-dimethyl-butanoyl]-N-[rac-(1S)-1-[4-(4-methylthiazol-5-yl)phenyl]ethyl]pyrrolidine-2-carboxamide] showed an Emax of 50%. Further, the DC50 under setting [4] was found to be 1180 nM.
In the same order, the values of `Cc1ncsc1-c1ccc([C@H](C)NC(=O)[C@@H]2C[C@@H](O)CN2C(=O)[C@@H](NC(=O)CCCCCCCCCCCCC(=O)N2CCOC3(CCN(c4cc(-c5ccccc5O)nnc4N)CC3)C2)C(C)(C)C)cc1` [Example 45, (2S,4R)-1-[(2S)-2-[[14-[9-[3-amino-6-(2-hydroxyphenyl)pyridazin-4-yl]-1-oxa-4,9-diazaspiro[5.5]undecan-4-yl]-14-oxo-tetradecanoyl]amino]-3,3-dimethyl-butanoyl]-4-hydroxy-N-[(1S)-1-[4-(4-methylthiazol-5-yl)phenyl]ethyl]pyrrolidine-2-carboxamide] are 33% and 120 nM.
For `Cc1ncsc1-c1ccc([C@H](C)NC(=O)[C@@H]2C[C@@H](O)CN2C(=O)[C@@H](NC(=O)CCCCCCCCCCC(=O)N2CCN(c3cccc(N4CCCC(Oc5cc(-c6ccccc6O)nnc5N)C4)c3)CC2)C(C)(C)C)cc1` (mixture of isomers) [Example 92, rac-(2S,4R)-4-hydroxy-1-[rac-(2S)-2-[[12-[4-[3-[3-[3-amino-6-(2-hydroxyphenyl)pyridazin-4-yl]oxy-1-piperidyl]phenyl]piperazin-1-yl]-12-oxo-dodecanoyl]amino]-3,3-dimethyl-butanoyl]-N-[rac-(1S)-1-[4-(4-methylthiazol-5-yl)phenyl]ethyl]pyrrolidine-2-carboxamide] the same measures were 45% and 560 nM.
In the same order, the values of `Cc1ncsc1-c1ccc([C@H](C)NC(=O)[C@@H]2C[C@@H](O)CN2C(=O)[C@@H](NC(=O)CCCCCCCCCCC(=O)N2CCN(CCOc3cccc(N4CCCC(Oc5cc(-c6ccccc6O)nnc5N)C4)c3)CC2)C(C)(C)C)cc1` (mixture of isomers) [Example 72, rac-(2S,4R)-4-hydroxy-1-[rac-(2S)-2-[[12-[4-[2-[3-[3-[3-amino-6-(2-hydroxyphenyl)pyridazin-4-yl]oxy-1-piperidyl]phenoxy]ethyl]piperazin-1-yl]-12-oxo-dodecanoyl]amino]-3,3-dimethyl-butanoyl]-N-[rac-(1S)-1-[4-(4-methylthiazol-5-yl)phenyl]ethyl]pyrrolidine-2-carboxamide] are 35% and 421 nM.
As for `Cc1ncsc1-c1ccc([C@H](C)NC(=O)[C@@H]2C[C@@H](O)CN2C(=O)[C@@H](NC(=O)CCCCCCCCC(=O)N2CCN(CCOc3ccc(N4CCCC(Oc5cc(-c6ccccc6O)nnc5N)C4)cc3)CC2)C(C)(C)C)cc1` (mixture of isomers) [Example 78, rac-(2S,4R)-4-hydroxy-1-[rac-(2S)-2-[[10-[4-[2-[4-[3-[3-amino-6-(2-hydroxyphenyl)pyridazin-4-yl]oxy-1-piperidyl]phenoxy]ethyl]piperazin-1-yl]-10-oxo-decanoyl]amino]-3,3-dimethyl-butanoyl]-N-[rac-(1S)-1-[4-(4-methylthiazol-5-yl)phenyl]ethyl]pyrrolidine-2-carboxamide], under setting [3], the Emax was determined as 20%. Besides, the DC50 under setting [4] came to 63 nM.
For `Cc1ncsc1-c1ccc(CNC(=O)[C@@H]2C[C@@H](O)CN2C(=O)[C@@H](NC(=O)CCCCCCCCCC(=O)N2CCN(CCOc3cccc(N4C5CCC4CN(c4cc(-c6ccccc6O)nnc4N)C5)c3)CC2)C(C)(C)C)cc1` [Example 11, (2S,4R)-1-[(2S)-2-[[11-[4-[2-[3-[3-[3-amino-6-(2-hydroxyphenyl)pyridazin-4-yl]-3,8-diazabicyclo[3.2.1]octan-8-yl]phenoxy]ethyl]piperazin-1-yl]-11-oxo-undecanoyl]amino]-3,3-dimethyl-butanoyl]-4-hydroxy-N-[[4-(4-methylthiazol-5-yl)phenyl]methyl]pyrrolidine-2-carboxamide] the same measures were 20% and 104 nM.
In the case of `Cc1ncsc1-c1ccc([C@H](C)NC(=O)[C@@H]2C[C@@H](O)CN2C(=O)[C@@H](NC(=O)CCC(=O)N2CCN(CCOc3cccc(N4CCCC(Oc5cc(-c6ccccc6O)nnc5N)C4)c3)CC2)C(C)(C)C)cc1` (mixture of isomers) [Example 69, rac-(2S,4R)-4-hydroxy-1-[rac-(2S)-2-[[4-[4-[2-[3-[3-[3-amino-6-(2-hydroxyphenyl)pyridazin-4-yl]oxy-1-piperidyl]phenoxy]ethyl]piperazin-1-yl]-4-oxo-butanoyl]amino]-3,3-dimethyl-butanoyl]-N-[rac-(1S)-1-[4-(4-methylthiazol-5-yl)phenyl]ethyl]pyrrolidine-2-carboxamide], the Emax under setting [3] is 60%. In addition, under setting [4], the DC50 is 2110 nM.
For `Cc1ncsc1-c1ccc([C@H](C)NC(=O)[C@@H]2C[C@@H](O)CN2C(=O)[C@@H](NC(=O)CCCCCCCCC(=O)N2CCN(c3cccc(OC4CN(c5cc(-c6ccccc6O)nnc5N)C4)c3)CC2)C(C)(C)C)cc1` [Example 96, (2S,4R)-1-[(2S)-2-[[10-[4-[3-[1-[3-amino-6-(2-hydroxyphenyl)pyridazin-4-yl]azetidin-3-yl]oxyphenyl]piperazin-1-yl]-10-oxo-decanoyl]amino]-3,3-dimethyl-butanoyl]-4-hydroxy-N-[(1S)-1-[4-(4-methylthiazol-5-yl)phenyl]ethyl]pyrrolidine-2-carboxamide] the same measures were 28% and 200 nM.
For `Cc1ncsc1-c1ccc(CNC(=O)[C@@H]2C[C@@H](O)CN2C(=O)[C@@H](NC(=O)CCCCCCCCCC(=O)N2CCN(C(=O)c3cccc(CN4C5CCC4CN(c4cc(-c6ccccc6O)nnc4N)C5)c3)CC2)C(C)(C)C)cc1` [Example 18, (2S,4R)-1-[(2S)-2-[[11-[4-[3-[[3-[3-amino-6-(2-hydroxyphenyl)pyridazin-4-yl]-3,8-diazabicyclo[3.2.1]octan-8-yl]methyl]benzoyl]piperazin-1-yl]-11-oxo-undecanoyl]amino]-3,3-dimethyl-butanoyl]-4-hydroxy-N-[[4-(4-methylthiazol-5-yl)phenyl]methyl]pyrrolidine-2-carboxamide] the same measures were 63% and 848 nM.
Under setting [3], `Cc1ncsc1-c1ccc([C@H](C)NC(=O)[C@@H]2C[C@@H](O)CN2C(=O)[C@@H](NC(=O)CCC(=O)N2CCN(c3ccc(N4CCCC(Oc5cc(-c6ccccc6O)nnc5N)C4)cc3)CC2)C(C)(C)C)cc1` (mixture of isomers) [Example 47, rac-(2S,4R)-4-hydroxy-1-[rac-(2S)-2-[[4-[4-[4-[3-[3-amino-6-(2-hydroxyphenyl)pyridazin-4-yl]oxy-1-piperidyl]phenyl]piperazin-1-yl]-4-oxo-butanoyl]amino]-3,3-dimethyl-butanoyl]-N-[rac-(1S)-1-[4-(4-methylthiazol-5-yl)phenyl]ethyl]pyrrolidine-2-carboxamide] registered an Emax of 55%. Moreover, under setting [4], the DC50 is 733 nM.
